{
  "source": "patent US9243247B2",
  "about": "“Composition for promoting apoptosis or inhibiting cell growth, comprising epstein-barr virus microrna” (Catholic University Industry Academic Cooperation Foundation, priority 2011, dated 2016)",
  "format_in_all_cases": "cell-based",
  "key": {"AGS cell strain": {"tested_on": "AGS cell strain", "test": "Effect on cell cycle (propidium iodide staining, FACS, sub G1)", "details": "for Relative Sub G1: mimic 10 nM, 10 uM 5-FU 24 h after transfection, then 48 hours, relative to scrambled control (=1)", "how_it_was_run": "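AGS gastric cells (EBV-negative), 2×10^5 per well, were transfected with synthetic miRNA (10 nM). DNA was stained with propidium iodide, and the cell-cycle-altered fraction was measured by FACS.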"}, "BIRC6 protein": {"tested_on": "BIRC6 protein", "test": "BIRC6 protein level by Western blotting", "details": "AGS; 48 hours after transfection; listed as miR-BART15-3p", "protocol": "(§1) miR-BART15-3p was transfected to AGS by using lipofectamine-2000. Forty eight hours after the transfection, the cells were harvested and a QRT-PCR and a Western blotting were performed (FIGS. 12A and 12B). The BIRC6 mRNA level was not changed in the AGS to which miR-BART15-3p was transfected, while the protein level was decreased.\n(§2) An miR-BART15-3p inhibitor was transfected to AGS-EBV by using lipofectamine-2000. Forty eight hours after the transfection, the cells were harvested and a QRT-PCR and a Western blotting were performed (FIGS. 12C and 12D). The BIRC6 mRNA level was not changed in the AGS-EBV to which an miR-BART15-3p inhibitor was transfected, while the protein level was increased."}, "BIRC6 mRNA": {"tested_on": "BIRC6 mRNA", "test": "BIRC6 mRNA level by QRT-PCR", "details": "AGS; 48 hours after transfection", "protocol": "as §1, §2"}},
  "data": [
    {"substance": "BART15-3p: EBV BART miRNA mimic, double stranded RNA; sense SEQ NO: 15, antisense SEQ NO: 16 (sense GUCAGUGGUUUUGUUUCCUUGA; antisense UCAAGGAAACAAAACCACUGAC; chemistry not given here)", "values": [
      {"measurement": "ratio of sub G1 after the 5-FU treatment", "setting": "AGS cell strain; mimic 10 nM plus 10 uM 5-FU (Example 6)", "value": "greatly increased"},
      {"measurement": "percentage of sub G1", "setting": "AGS cell strain; mimic 10 nM transfected alone, versus scrambled control", "value": "significantly higher"},
      {"measurement": "Relative Sub G1", "setting": "AGS cell strain", "value": 2.508},
      {"measurement": "Relative Sub G1", "setting": "AGS cell strain; listed as 15-3p", "value": "increased"},
      {"measurement": "BIRC6 protein level", "setting": "BIRC6 protein", "value": "decrease"},
      {"measurement": "BIRC6 mRNA level", "setting": "BIRC6 mRNA", "value": "not changed"}
    ]}
  ]
}
